The source of these data is US6391921B1 (priority 2000, dated 2002).

In general, IC50 refers to the point on the concentration scale where inhibition reaches its midpoint. A low value points to higher potency.

One test deals with T1, SYK (Homo sapiens, UniProt P43405).
T1 construct: made in house; host or cells: Sf21 insect cells (baculovirus)
As to the kind of experiment: SYK tyrosine kinase assay. The format is biochemical. To be noted: 1 hour exposure. The protocol: (§1) Sf21 (IPLB-SF21-AE) cells derived from the ovarian tissue of the fall armyworm Spodotera frugiperda, were obtained from Invitrogen and maintained at 26-28° C. in Grace's insect cell medium supplemented with 10% FBS and 1.0% antibiotic/antimycotic (GIBCO-BRL). Stock cells were maintained in suspension at 0.2-1.6×10^6/ml in 600 ml total culture volume in 1 L Bellco spinner flasks at 60-90 rpm. Cell viability was maintained at 95-100% as determined by trypan blue dye exclusion.
(§2) Sf21 cells were infected with a baculovirus expression vector for BTK or SYK, as previously described (refs 18 and 19). […]
(§3) Following electrophoresis, kinase gels were dried onto Whatman 3M filter paper and subjected to phosphoimaging on a Molecular Imager (Bio-Rad, Hercules, Calif.) as well as autoradiography on film. […] For each drug concentration, a BTK or SYK kinase activity index was determined by comparing the ratios of the kinase activity in phosphorimager units (PIU) and density of the protein bands in densitometric scanning units (DSU) to those of the baseline sample and using the formula: Activity Index=[PIU of kinase band/DSU of BTK/SYK protein band]test sample: [PIU of kinase band/DSU of BTK/SYK protein band]baseline control sample.

A further test has as its system Balb/c mice. As to the kind of experiment: Carrageenan air pouch model of acute inflammation, PGE2 release in vivo. Particulars: 50 mg/kg i.p. twice before carrageenan challenge; 4 hours after challenge; FIG. 6. The procedure: The effects of compound D-58 on PGE2 release in vivo were examined using a well characterized air pouch mouse model of acute inflammation (ref 36). An acute inflammatory response was induced in the air pouches of mice by the injection of carrageenan, a sulfated polysaccharide obtained from the alga Chondrus crispus (ref 36).
Balb/c (6-8 weeks old male) mice were utilized for these experiments. To create an air pouch, mice were injected with 3 ml sterile air subcutaneously using a 30 gauge needle on days 0 and 3 as described previously (refs 30 and 31). Six days after the initial injection of air, mice were injected with 2 ml of 1% carrageenan into the subcutaneous air pouch.
In order to study the effect of compound D-58, a group of mice was injected with the drug i.p. 60 minutes and 30 minutes before the carrageenan challenge. Control mice were treated with vehicle alone. After 4 hours of challenge with carrageenan, mice were sacrificed and the contents of the air pouches were harvested by lavage with 2 ml cold saline. The recovered fluids were centrifuged at 250×g for 15 minutes at 4° C. Supernatants were saved at −80° C. for the estimation the of prostaglandin E2 contents. […]
The data points represent the mean±SEM values (n=4-5 mice). *p<0.05 compared to vehicle-treated controls was determined by Student's t test.

In the next test the target is T2, BTK (Homo sapiens, UniProt Q06187).
T2 construct: made in house; host or cells: Sf21 insect cells (baculovirus)
T2 sequence (Q06187 whole entry, species assumed): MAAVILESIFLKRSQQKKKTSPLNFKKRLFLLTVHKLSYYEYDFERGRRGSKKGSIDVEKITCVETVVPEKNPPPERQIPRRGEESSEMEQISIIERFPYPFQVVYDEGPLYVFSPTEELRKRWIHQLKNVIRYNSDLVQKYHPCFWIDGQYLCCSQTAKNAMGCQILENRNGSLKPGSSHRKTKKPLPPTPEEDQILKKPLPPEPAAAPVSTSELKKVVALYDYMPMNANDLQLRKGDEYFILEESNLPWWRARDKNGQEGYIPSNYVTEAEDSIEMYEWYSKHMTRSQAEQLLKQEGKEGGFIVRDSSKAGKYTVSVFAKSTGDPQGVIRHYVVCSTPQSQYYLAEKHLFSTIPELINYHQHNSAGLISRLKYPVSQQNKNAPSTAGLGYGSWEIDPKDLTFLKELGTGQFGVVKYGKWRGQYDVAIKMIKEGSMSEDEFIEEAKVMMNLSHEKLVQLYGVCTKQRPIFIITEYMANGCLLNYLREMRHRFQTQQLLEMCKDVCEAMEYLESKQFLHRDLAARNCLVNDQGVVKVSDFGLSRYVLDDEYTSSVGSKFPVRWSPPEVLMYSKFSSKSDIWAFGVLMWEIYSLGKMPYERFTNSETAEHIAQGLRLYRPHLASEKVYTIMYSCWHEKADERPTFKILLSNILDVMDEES
As to the kind of experiment: BTK tyrosine kinase assay. The format is biochemical. Particulars: 1 hour exposure. The procedure:
as §1, §2, §3

For the next test, the system named is skh-1 mice. Description: UVB-irradiated skin edema (skinfold thickness). The format is in vivo. Particulars: 180 mJ/cm^2 UVB. The protocol: Mice (skh-1) were treated daily with 20 mg/kg i.p. bolus injections of compound D-58 from day −2 (i. e. 2 days prior to UVB exposure) until the termination of the experiment. Anesthetized mice received UVB radiations to a 2.0 cm^2 area on their dorsal surface. This area was painted either with the test compound (1.5 mg/cm^2) in drug receiving mice, or with vehicle in control mice 15 minutes before irradiation. The distance between UVB lamps and surface receiving irradiation was 20 cm. The final radiation dose received by skh-1 hairless mice was 180 mJ/cm^2 which is approximately four times higher than the minimal erythema dose (MED) (ref 29) in these mice. Skinfold thickness of the back of the mice was recorded prior to, and on each day after UVB exposure for five days with a digital thickness gauge (Mitutoyo Co., Plainfield, N.J.) which measures the skinfold thickness in a 0-10 mm range with an accuracy of 0.015 mm. […] For this purpose female, hairless, albino skh-1 mice were exposed to 180 mJ/cm^2 UVB light and their skinfold thickness, as a parameter of acute inflammation, was measured on days 1 through 5 following irradiation. […] The data points represent the mean±SEM values (n=5 mice). *p<0.05 and **p<0.001 compared to vehicle-treated UVB irradiated controls were determined by Student's t test.

As to `COc1ccc(CC(=O)c2c(O)cc(O)cc2O)cc1` [Compound D-58], the IC50 against SYK (first experiment, FIG. 1B) is 36.9 µM; at SYK (second experiment, FIG. 1C), < 10 µM; against BTK (first experiment, FIG. 1A), 18.6 µM; at BTK (second experiment, FIG. 1C), 35.5 µM. Further, the “decrease of PGE2 release into the air pouch” value with Balb/c mice is on record as “approximately 50%”. Also, in the test with skh-1 mice (20 mg/kg i.p. daily from day −2 plus 1.5 mg/cm^2 topical, FIG. 7), the “development of skin edema after UVB exposure” value is “effectively inhibited”. Further, the skinfold thickness entry in the test on skh-1 mice (by 72 hours post irradiation) was “at baseline control levels”.
